Consider one compound from PMC7369637, “Inhibition of Resistance-Refractory P. falciparum Kinase PKG Delivers Prophylactic, Blood Stage, and Transmission-Blocking Antiplasmodial Activity” (Cell Chemical Biology, 2020).

One assay has as its system Pf Dd2-B2 ABS parasites. Description: 72-h asexual blood stage (ABS) growth inhibition assay, Dd2-B2. As to conditions: Dd2-B2 wild-type, 72 h; read-out: Mean IC50, 72 h ABS activity. The format is cell-based, Plasmodium falciparum. How it is done:
(§1) Synchronicity was achieved using three rounds of sorbitol treatment on early rings, spaced 48 h apart, followed by magnetic purification of segmented schizonts following the final sorbitol treatment. Parasites were highly synchronous to within a 3 h window of development. Assays were repeated on at least three independent occasions (each with technical duplicates) and statistical significance was assessed using Mann Whitney U tests.

In another assay the test system is sel. Dd2-B2 TKL3T1268R. Description: 72-h ABS assay, MMV030084-selected line. It counts as cell-based, Plasmodium falciparum. How it is done:
as §1
The resulting MMV030084-resistant parasites were cloned by limiting dilution ([Baker et al., 2017]) to obtain genetically homogenous cultures for further phenotyping and whole-genome sequencing. A second round of […]. […] Drug susceptibility of resistant lines was assessed using a 72 h ABS assay as described above, and a Mann Whitney U test was applied to assess statistically significant differences.

A further assay relates to B-raf kinase. The following applies: ref Gamo et al., 2010; cited from earlier work.

Each structure is given as a SMILES string.

Regarding `CC(C)(CN)c1cc(-c2ccc(Cl)c(O)c2)c(-c2ccncc2)o1.Cl` [TCMDC-141334], the IC50 stood at 277 nM in the assay with Pf Dd2-B2 ABS parasites and 599 nM with sel. Dd2-B2 TKL3T1268R. Besides, the “Reported kinase inhibitor activity” value with B-raf kinase is “B-raf kinase inhibitor”.

One may read the IC50 as the point on the concentration scale where inhibition reaches its midpoint.
